Paper PMC10002375, “Synthesis of 3-(2-Alkylthio-4-chloro-5-methylbenzenesulfonyl)-2-(1-phenyl-3-arylprop-2-enylideneamino)guanidine Derivatives with Pro-Apoptotic Activity against Cancer Cells” (International Journal of Molecular Sciences, 2023)

Assays:
HeLa (cervical cancer) = experiment: MTT cell viability assay, HeLa; format: cell-based, human; details: for IC50: Homo sapiens, HeLa, MTT, 72 h; for Selectivity Index HeLa/HaCaT: HeLa versus HaCaT, from IC50 values
Protocol: (§1) All chemicals, if not stated otherwise, were obtained from Sigma-Aldrich (St. Louis, MO, USA). The MCF-7 cell line was purchased from Cell Lines Services (Eppelheim, Germany), the HeLa and HCT-116 cell lines were obtained from the Department of Microbiology, Tumor and Cell Biology, Karolinska Institute (Stockholm, Sweden). Cells were cultured in Dulbecco’s modified Eagle’s medium (DMEM) supplemented with 10% fetal bovine serum, 2 mM glutamine, 100 units/mL penicillin, and 100 μg/mL streptomycin. Cultures were maintained in a humidified atmosphere with 5% CO2 at 37 °C in an incubator (HeraCell, Heraeus, Langenselbold, Germany).
(§2) Cell viability was determined using the MTT (3-(4,5-dimethylthiazol-2-yl)-2,5-diphenyl-tetrazoliumbromide) assay. Stock solutions of the studied compounds were prepared in 100% DMSO. […] Cells were seeded in 96-well plates at a density of 5 × 10^3 cells/well and treated for 72 h with the examined compounds in the concentration range 1–100 μM (1, 10, 25, 50, and 100 μM). Following treatment, MTT (0.5 mg/mL) was added to the medium and cells were further incubated for 2 h at 37 °C. Cells were lysed with DMSO and the absorbance of the formazan solution was measured at 550 nm with a plate reader (1420 multilabel counter, Victor, Jügesheim, Germany). […] The experiment was performed in triplicate. Values are expressed as the mean ± SD of at least three independent experiments.

MCF-7 (breast cancer) = experiment: MTT cell viability assay, MCF-7; format: cell-based, human; details: for IC50: MTT, 72 h; for Selectivity Index MCF-7/HaCaT: MCF-7 versus HaCaT, from IC50 values
Source text: (§3) The cytotoxic activity of the compounds 8–33 has been evaluated in MTT assays against three human cancer cell lines MCF-7 (breast cancer), HeLa (cervical cancer), and HCT-116 (colon cancer) and it was expressed as IC50 values in μM (Table 1).
as §1, §2

HCT-116 (colon cancer) = experiment: MTT cell viability assay, HCT-116; format: cell-based, human; details: for IC50: Homo sapiens, HCT-116, MTT, 72 h; for Selectivity Index HCT-116/HaCaT: HCT-116 versus HaCaT, from IC50 values
Protocol: as §1, §2

HaCaT cells = experiment: MTT assay with non-cancerous HaCaT cell line; format: cell-based; details: 72 h
Protocol: The important feature of new cytotoxic agents is their selective activity against cancer cells with a weak impact on the physiology of healthy cells. Determination of the selectivity of compounds 14–19 and 24–29 was done by MTT assay with the non-cancerous HaCaT cell line (Table 2). […] A similar effect was observed also for compound 26. […] Due to the excellent selectivity of compound 30 towards HCT-116 cells and at the same time high cytotoxicity towards this cell line (IC50 = 8 μM); derivative 30 may be a good hit compound for the search for chemotherapeutic agents for the treatment of colon cancer.
as §2

[1] = tested on: MCF-7, HeLa and HCT-116 cells; experiment: MTT assay, mean over three tested cancer cell lines; format: cell-based, human
Protocol: as §3
Although the highest activity of the compounds with hydroxyl groups as the R^2 residue was against colon cancer cells, the inhibition of the growth of breast cancer cells was also remarkable.
as §2

| Compound | IC50 (HeLa (cervical cancer)) [µM] | IC50 (MCF-7 (breast cancer); Homo sapiens, MCF7) [µM] | IC50 (HCT-116 (colon cancer)) [µM] | IC50 (HaCaT cells; Homo sapiens, HaCaT) [µM] | Selectivity Index HeLa/HaCaT (HeLa (cervical cancer)) | Selectivity Index MCF-7/HaCaT (MCF-7 (breast cancer)) | Selectivity Index HCT-116/HaCaT (HCT-116 (colon cancer)) | IC50 (HaCaT cells) [µM] | IC50 (MCF-7 (breast cancer)) [µM] | selectivity ratio, mean IC50 against cancer cells versus IC50 for HaCaT ([1]; HaCaT versus mean of three cancer cell lines) | IC50 ([1]; Homo sapiens, mean of MCF-7, HeLa, HCT-116, MTT, 72 h, read-out: mean IC50 against three tested cell lines) [µM] | melting point [°C] |
| --- | --- | --- | --- | --- | --- | --- | --- | --- | --- | --- | --- | --- |
| Cc1cc(S(=O)(=O)NC(N)=NN=C(C=Cc2ccc([N+](=O)[O-])cc2)c2ccccc2)c(SCc2ccccc2)cc1Cl [Compound 13] | 340 ± 31 | 370 ± 20 | 320 ± 10 |  |  |  |  |  |  |  |  |  |
| COc1ccc(C=CC(=NN=C(N)NS(=O)(=O)c2cc(C)c(Cl)cc2SCc2ccccc2)c2ccccc2)cc1 [Compound 11] |  | 330 ± 17 | 300 ± 21 |  |  |  |  |  |  |  |  |  |
| Cc1cccc(CSc2cc(Cl)c(C)cc2S(=O)(=O)NC(N)=NN=C(C=Cc2ccc(O)cc2)c2ccccc2)c1 [Compound 17] | 21 ± 1 | 17 ± 1 | 12 ± 0.6 | 35 ± 2 | 1.7 | 2.1 | 2.9 |  |  |  |  |  |
| COc1ccc(C=CC(=NN=C(N)NS(=O)(=O)c2cc(C)c(Cl)cc2SCc2ccc(C)cc2)c2ccccc2)cc1 [Compound 21] | 250 ± 12 | 150 ± 10 | 235 ± 5 |  |  |  |  |  |  |  |  |  |
| Cc1cc(S(=O)(=O)NC(N)=NN=C(C=Cc2ccccc2)c2ccccc2)c(SCc2ccc(Cl)cc2)cc1Cl [Compound 28] | 20 ± 1 | 230 ± 12 | 220 ± 11 | 99 ± 3 |  |  |  |  |  |  |  |  |
| Cc1ccc(CSc2cc(Cl)c(C)cc2S(=O)(=O)NC(N)=NN=C(C=Cc2ccc([N+](=O)[O-])cc2)c2ccccc2)cc1 [Compound 23] | 170 ± 10 | 280 ± 17 |  |  |  |  |  |  |  |  |  |  |
| Cc1cc(S(=O)(=O)NC(N)=NN=C(C=Cc2ccc(O)cc2)c2ccccc2)c(SCc2cccc(Cl)c2)cc1Cl [Compound 27] | 20 ± 0.5 | 16 ± 1 | 12 ± 0.1 | 37 ± 2 | 1.8 | 2.3 | 3.1 |  |  |  |  |  |
| Cc1cccc(CSc2cc(Cl)c(C)cc2S(=O)(=O)NC(N)=NN=C(C=Cc2ccccc2O)c2ccccc2)c1 [Compound 16] | 36 ± 2 | 20 ± 0.5 | 17 ± 0.1 | 41 ± 2 | ns | 2.0 | 2.4 |  |  |  |  |  |
| Cc1cc(S(=O)(=O)NC(N)=NN=C(C=Cc2ccccc2O)c2ccccc2)c(SCc2cccc(Cl)c2)cc1Cl [Compound 26] | 19 ± 0.5 | 13 ± 0.6 | 10 ± 0.4 | 38 ± 2 | 2.0 | 2.9 | 3.8 |  |  |  |  |  |
| Cc1cc(S(=O)(=O)NC(N)=NN=C(C=Cc2ccccc2O)c2ccccc2)c(SCc2ccc(Cl)cc2)cc1Cl [Compound 29] | 41 ± 2 | 19 ± 1 | 18 ± 0.4 | 45 ± 3 | ns | 2.4 | 2.5 |  |  |  |  |  |
| Cc1cc(S(=O)(=O)NC(N)=NN=C(C=Cc2ccc(Cl)cc2)c2ccccc2)c(SCc2ccccc2)cc1Cl [Compound 12] | 190 ± 10 | 210 ± 13 | 113 ± 6 |  |  |  |  |  |  |  |  |  |
| Cc1cc(S(=O)(=O)NC(N)=NN=C(C=Cc2ccc(O)cc2)c2ccccc2)c(SCc2ccccc2)cc1Cl [Compound 10] | 15 ± 1 | 15 ± 1 | 9 ± 0.1 | 31 ± 1 | 2.1 | 2.1 | 3.4 |  |  |  |  |  |
| Cc1ccc(CSc2cc(Cl)c(C)cc2S(=O)(=O)NC(=N)N/N=C(/C=C/c2ccccc2)c2ccccc2)cc1 [Compound 18] | 200 ± 10 | 260 ± 15 | 160 ± 5 |  |  |  |  |  |  |  |  |  |
| Cc1cc(S(=O)(=O)NC(N)=NN=C(C=Cc2ccc(O)cc2)c2ccccc2)c(SCc2ccccc2Cl)cc1Cl [Compound 25] | 18 ± 0.5 | 19 ± 1 | 15 ± 0.6 | 41 ± 2 | 2.3 | 2.2 | 2.7 |  |  |  |  |  |
| N.N.[Cl][Pt][Cl] [Cisplatin, reference compound] |  |  |  |  |  |  |  | 7.7 ± 0.2 | 3 ± 0.1 |  |  |  |
| Cc1cc(S(=O)(=O)NC(N)=NN=C(C=Cc2ccccc2O)c2ccccc2)c(SCc2ccccc2C)cc1Cl [Compound 14] | 18 ± 1 | 13 ± 0.6 | 9 ± 0.1 | 31 ± 2 | 1.7 | 2.4 | 3.4 |  |  |  |  |  |
| Cc1cc(S(=O)(=O)NC(N)=NN=C(C=Cc2ccc(O)cc2)c2ccccc2)c(SCc2ccc(Cl)cc2)cc1Cl [Compound 30, 3-{4-chloro-2-[(4-chlorophenyl)methylthio]-5-methylbenzenesulfonyl}-2-[3-(4-hydroxyphenyl)-1-phenylprop-2-enylideneamino]guanidine] | 37 ± 1 | 18 ± 1 | 8 ± 0.2 | 85 ± 2 | 2.3 | 4.7 | 10.6 |  |  |  |  |  |
| Cc1ccc(CSc2cc(Cl)c(C)cc2S(=O)(=O)NC(N)=NN=C(C=Cc2ccc(O)cc2)c2ccccc2)cc1 [Compound 20, 3-{4-Chloro-2-[(4-methylphenyl)methylthio]-5-methylbenzenesulfonyl}-2-[3-(4-hydroxyphenyl)-1-phenylprop-2-enylideneamino]guanidine] | 15 ± 1 | 15 ± 1 | 8.5 ± 0.2 | 31 ± 1 | 2.1 | 2.1 | 3.6 |  |  | 2.42 | 12.8 |  |
| Cc1cc(S(=O)(=O)NC(N)=NN=C(C=Cc2ccc([N+](=O)[O-])cc2)c2ccccc2)c(SCc2ccc(Cl)cc2)cc1Cl [Compound 33] | 110 ± 3 | 220 ± 12 | 450 ± 27 |  |  |  |  |  |  |  |  |  |
| Cc1cc(S(=O)(=O)NC(N)=NN=C(C=Cc2ccccc2)c2ccccc2)c(SCc2ccccc2)cc1Cl [Compound 8] | 120 ± 8 | 130 ± 8 | 167 ± 7 |  |  |  |  |  |  |  |  |  |
| Cc1ccc(CSc2cc(Cl)c(C)cc2S(=O)(=O)NC(N)=NN=C(C=Cc2ccc(Cl)cc2)c2ccccc2)cc1 [Compound 22] | 705 ± 35 | 193 ± 10 | 183 ± 13 |  |  |  |  |  |  |  |  | 172 to 177 |
| Cc1cc(S(=O)(=O)NC(N)=NN=C(C=Cc2ccccc2O)c2ccccc2)c(SCc2ccccc2)cc1Cl [Compound 9] | 17 ± 1 | 18 ± 1 | 11 ± 0.5 | 35 ± 1 | 2.1 | 1.9 | 3.2 |  |  |  |  |  |
